# According to publication PMC6494957 (Frontiers in Microbiology, 2019):
# Positions of bridges follow the written chain, without caps; N, C: chain ends. Non-standard residues stand in square brackets, D forms with d. Residues, ends and D or L forms follow the SMILES beside them. Dab = NCC[C@H](N)C(=O)O
# Experiments:
# [1] = test system: S. pseudintermedius (n = 20) clinical isolates from otitis externa cases in dogs; experiment: MIC/MBC and checkerboard, canine otitis externa isolates; format: cell-based, Staphylococcus pseudintermedius; conditions: canine otitis externa; for MIC50 / MIC90: Staphylococcus pseudintermedius; for MIC50: read-out: MIC50, single drug; for MIC90: read-out: MIC90, single drug
# Text: (§1) Escherichia coli ATCC 25922, E. coli ATCC 11229, P. aeruginosa ATCC 27853, P. aeruginosa PA01, Pseudomonas putida ATCC 17428, P. mirabilis ATCC 43071, K. pneumoniae ATCC 13883, A. baumannii ATCC 19606, and A. baumannii ATCC 12457 were used for preliminary susceptibility testing and combination experiments. S. aureus ATCC 29213 and S. pneumoniae ATCC 49619 were used as internal quality controls. A variety of bacterial organisms from both human and canine infections were investigated in this study (n = 119 isolates in total). Twenty-eight clinical Acinetobacter spp. isolates were obtained from cases of human skin and soft tissue infections, including 18 Acinetobacter baumannii and 10 A. calcoaceticus, kindly provided by a person (Institute of Medical and Veterinary Science, South Australia). […] Ninety-one clinical isolates were obtained from cases of canine otitis externa, including seven methicillin-susceptible S. pseudintermedius (MSSP), 13 multidrug- and methicillin-resistant S. pseudintermedius (MRSP) ([Saputra et al., 2017]), 20 beta-haemolytic Streptococcus spp., 30 P. aeruginosa (10 of them resistant to gentamicin and 21 P. mirabilis isolates). These isolates were obtained from the bacterial collection of the national survey of antimicrobial resistance in animals conducted in Australia. Swab samples from dogs with signs of otitis externa were collected by veterinarians and submitted to government, private or university diagnostic laboratories throughout Australia. After routine bacterial identification and the removal of confidential information, the participating veterinary diagnostic laboratories submitted the bacteria and their clinical information to PC2 Laboratories, Australian Centre for Antimicrobial Resistance Ecology, School of Animal and Veterinary Sciences, University of Adelaide, Roseworthy Campus, Roseworthy, SA, Australia, for further study. Thus, animal ethics approval was not required in this study. These organisms were identified to species level using biochemical testing and MALDI-TOF mass spectrometry (Bruker, Preston, VIC, Australia).
# (§2) The MIC for ampicillin or gentamicin against each isolate was determined for each test to serve as an internal quality control. The MICs of isolates were determined by visual reading and using an EnSpire Multimode Plate Reader 2300 atA600nm.
# (§3) Briefly, 10 μl aliquots from each duplicate well from the MIC assays (starting from the MIC for each compound) were inoculated onto a sheep blood agar (SBA) plate and incubated at 37°C.
# (§4) Briefly, antimicrobial stock solutions for robenidine and PMBN were prepared at a concentration of 12.8 mg/ml in DMSO. […] A 1 μl aliquot of the first compound from each combination was dispensed along the abscissa (from row A to G) of the 96-well microplate, while the second compound was dispensed along the ordinate (from column 12 to column 3) using an electronic multichannel pipette followed by 89 μl of LB broth. Each well of the plate was inoculated with an aliquot of 10 μl bacterial suspension at a concentration of 1-5 × 10^6 colony forming units (CFU) per ml. Subsequently, the plate was incubated at 37°C for 24 h. The fractional inhibitory concentration index (FICI) described the results of the combinations, and was calculated utilizing the following formula:
# (§5) DRI = MIC of drug alone/MIC of drug in combination
# E. coli ATCC 25922 = experiment: microbe, parasite or virus in culture; conditions: for MIC: Escherichia coli, ATCC25922, read-out: MIC, single drug
# Method: as §2, §4, §5
# S. aureus ATCC 29213 = experiment: MIC broth microdilution, quality control strain; format: cell-based; conditions: Staphylococcus aureus, ATCC29213; S. aureus ATCC 29213, quality control strain
# Method: (§6) Luria Bertani (LB) broth (Oxoid, Australia) was applied for MIC testing in lieu of cation-adjusted Mueller–Hinton broth as robenidine has been previously shown to chelate calcium ions. Furthermore, a twofold serial dilution of robenidine was performed in 100% DMSO, with 1 μl dispensed to each well due to the hydrophobicity of the compound ([Abraham et al., 2016]). The MIC for ampicillin or gentamicin against each isolate was determined for each test to serve as an internal quality control. The MICs of isolates were determined by visual reading and using an EnSpire Multimode Plate Reader 2300 atA600nm.
# S. pneumoniae ATCC 49619 = experiment: MIC broth microdilution, quality control strain; format: cell-based; conditions: Streptococcus pneumoniae, ATCC49619; S. pneumoniae ATCC 49619, quality control strain
# Method: as §6
# [2] = test system: Beta-haemolytic streptococci (n = 20) clinical isolates from otitis externa cases in dogs; experiment: MIC/MBC and checkerboard, canine otitis externa isolates; format: cell-based, beta-haemolytic Streptococcus spp.; conditions: canine otitis externa; for MIC50 / MIC90: Streptococcus; for MIC50: read-out: MIC50, single drug; for MIC90: read-out: MIC90, single drug
# Text: as §1, §2, §3, §4, §5
# [3] = test system: P. mirabilis (n = 21) clinical isolates from otitis externa cases in dogs; experiment: as above; format: cell-based, Proteus mirabilis; conditions: canine otitis externa; for MIC50 / MIC90: Proteus mirabilis; for MIC50: read-out: MIC50, single drug; for MIC90: read-out: MIC90, single drug
# Text: as §1, §2, §3, §4, §5
# P. aeruginosa ATCC 27853 = experiment: microbe, parasite or virus in culture; conditions: for MIC: Pseudomonas aeruginosa, ATCC27853, read-out: MIC, single drug
# Method: as §2, §4, §5
# [4] = test system: P. aeruginosa (n = 30) clinical isolates from otitis externa cases in dogs; experiment: MIC/MBC and checkerboard, canine otitis externa isolates; format: cell-based, Pseudomonas aeruginosa; conditions: canine otitis externa; for MIC50 / MIC90: Pseudomonas aeruginosa; for MIC50: read-out: MIC50, single drug; for MIC90: read-out: MIC90, single drug
# Text: as §1, §2, §3, §4, §5
# [5] = test system: Gram-negative control strains; experiment: Checkerboard, summary over Gram-negative strains; format: cell-based; conditions: in combination with robenidine; for P. aeruginosa
# Method: as §4, §5
# [6] = test system: all the cell lines tested (HaCaT, HEK 293, MDCK); experiment: cells; conditions: 24 h
# Method: Cells were maintained in Dulbecco’s modified Eagle’s medium (DMEM) with 10% fetal bovine serum (FBS) and 1% PenStrep (100 U/mL Penicillin and 100 μg/mL Streptomycin) at 37°C with 5% CO2. Cells were serially passaged at ∼80% confluence ∼ every 4 days. Assays were performed in duplicate in 96 well plates seeded with ∼25,000 cells per well. […] Briefly, the antimicrobials were prepared by performing a twofold serial dilution at 100× of tested concentration in DMSO. Subsequently, a 1 μl aliquot of each concentration was transferred to a sterile 96-well plate containing fresh DMEM with either 10% FBS. After mixing four times, the media aliquots with different concentrations of antimicrobial were transferred to each well of the 96-well plate seeded with cells, using wells containing 1–2% DMSO only as control. To determine the effect of FBS on the cytotoxicity of each compound, DMEM with 40% FBS containing different concentrations of antimicrobial was prepared as described above. After 24 h of exposure, WST-1 reagent (Cell Proliferation Assay reagent, Roche) at a concentration of 10% was added to each well. Absorbance at A450 nm on a Multiskan Ascent 354 Spectrophotometer (Labsystems) was measured after 1 h of incubation. The IC50 value was determined for each compound against each cell line via non-linear regression (three parameters) using GraphPad Prism v6 software.
# E. coli ATCC 11229 = experiment: microbe, parasite or virus in culture
# Method: as §2, §4, §5
# A. baumannii ATCC 12457 = experiment: microbe, parasite or virus in culture
# Method: as §2, §4, §5
# [7] = test system: A. calcoaceticus (human clinical isolate); experiment: microbe, parasite or virus in culture
# Method: as §2, §4, §5
# K. pneumoniae ATCC 13883 = experiment: microbe, parasite or virus in culture
# Method: as §2, §4, §5
# P. putida ATCC 17428 = experiment: microbe, parasite or virus in culture
# Method: as §2, §4, §5
# A. baumannii ATCC 19606 = experiment: microbe, parasite or virus in culture
# Method: as §2, §4, §5
# P. mirabilis ATCC 43071 = experiment: microbe, parasite or virus in culture; conditions: ATCC 43071, 24 h
# Method: as §2, §4, §5
SMILES,MIC50 [1],MIC90 [1],"MIC range, single drug [1]",MIC (E. coli ATCC 25922),MIC (S. aureus ATCC 29213),MIC50 [2],MIC90 [2],"MIC range, single drug [2]",MIC50 [3],MIC90 [3],MIC (P. aeruginosa ATCC 27853),MIC50 [4],MIC90 [4],"MIC range, single drug [4]",further results
"CC1(C)S[C@@H]2[C@H](NC(=O)[C@H](N)c3ccccc3)C(=O)N2[C@H]1C(=O)O [Ampicillin, ampicillin]",0.125 µg/mL,8 µg/mL,0.03 to 32 µg/mL,4 µg/mL,1 µg/mL,0.125 µg/mL,0.25 µg/mL,0.06 to 0.5 µg/mL,,,,,,,MIC (S. pneumoniae ATCC 49619): 0.125 µg/mL
"CN[C@@H]1[C@@H](O[C@H]2O[C@H](CO)[C@@H](N)[C@H](O)[C@H]2O)OC2C[C@@H](N)[C@@H](O[C@H]3[C@H](O)[C@@H](O)[C@H](N)C[C@@H]3N)OC2[C@@H]1O (stereo partly drawn) [Apramycin, apramycin]",8 µg/mL,16 µg/mL,1 to 16 µg/mL,8 µg/mL,4 µg/mL,64 µg/mL,128 µg/mL,4 to 128 µg/mL,32 µg/mL,64 µg/mL,16 µg/mL,32 µg/mL,64 µg/mL,16 to 64 µg/mL,"MIC range, single drug [3]: 16 to 64 µg/mL"
"CNC(C)C1CCC(N)C(OC2C(N)CC(N)C(OC3OCC(C)(O)C(NC)C3O)C2O)O1 (stereo not drawn) [Gentamicin, gentamicin]",2 µg/mL,2 µg/mL,1 to 64 µg/mL,0.5 µg/mL,0.5 µg/mL,8 µg/mL,8 µg/mL,8 to 16 µg/mL,8 µg/mL,32 µg/mL,2 µg/mL,32 µg/mL,64 µg/mL,0.25 to 64 µg/mL,
"CC(C)C[C@@H]1NC(=O)[C@@H](Cc2ccccc2)NC(=O)[C@H](CCN)NC(=O)[C@@H](NC(=O)[C@H](CCN)NC(=O)[C@@H](N)[C@@H](C)O)CCNC(=O)[C@H]([C@@H](C)O)NC(=O)[C@H](CCN)NC(=O)[C@H](CCN)NC1=O [PMBN, polymyxin B nonapeptide] (H-T[Dab][Dab][Dab][dF]L[Dab][Dab]T; lactam 3-C; N-terminus assumed)",,,,,,,,,,,,,,,"fold reduction of the MIC of PMBN [5]: 4- to 64 fold; IC50 [6]: > 32 µg/mL; MIC, single drug (E. coli ATCC 11229; ATCC 11229, 24 h): >32 µg/mL; MIC in combination PMBN:ROB (E. coli ATCC 11229; E. coli ATCC 11229, concentration of the labelled component): 6 µg/mL; MIC, single drug (E. coli ATCC 25922; ATCC 25922, 24 h): >32 µg/mL; MIC in combination PMBN:ROB (E. coli ATCC 25922; E. coli ATCC 25922, concentration of the labelled component): 6 µg/mL; MIC in combination PMBN:ROB (A. baumannii ATCC 12457; A. baumannii ATCC 12457, concentration of the labelled component): 1 µg/mL; MIC, single drug (A. baumannii ATCC 12457; ATCC 12457, 24 h): >32 µg/mL; MIC, single drug ([7]; 24 h): >32 µg/mL; MIC in combination PMBN:ROB ([7]; A. calcoaceticus human clinical isolate, concentration of the labelled component): 1.5 µg/mL; MIC, single drug (K. pneumoniae ATCC 13883; ATCC 13883, 24 h): >32 µg/mL; MIC in combination PMBN:ROB (K. pneumoniae ATCC 13883; K. pneumoniae ATCC 13883, concentration of the labelled component): 0.5 µg/mL; MIC, single drug (P. putida ATCC 17428; ATCC 17428, 24 h): 4 µg/mL; MIC in combination PMBN:ROB (P. putida ATCC 17428; P. putida ATCC 17428, concentration of the labelled component): 1:1 μg/ml; MIC in combination PMBN:ROB (A. baumannii ATCC 19606; A. baumannii ATCC 19606, concentration of the labelled component): 1 µg/mL; MIC, single drug (A. baumannii ATCC 19606; ATCC 19606, 24 h): >32 µg/mL; MIC, single drug (P. aeruginosa ATCC 27853; ATCC 27853, 24 h): 2 µg/mL; MIC in combination PMBN:ROB (P. aeruginosa ATCC 27853; P. aeruginosa ATCC 27853, concentration of the labelled component): 0.75 µg/mL; MIC, single drug (P. mirabilis ATCC 43071): >32 µg/mL"
